{"source": "patent US10357516B2", "about": "(priority 2008, dated 2019)", "key": {"[1]": {"system": "Staphylococcus aureus", "assay": "Pathogen inactivation in RBC units (log reduction)", "format": "cell-based"}, "[2]": {"system": "Serratia marcescens", "assay": "Pathogen inactivation in RBC units (log reduction)", "format": "cell-based"}, "[3]": {"system": "Yersinia enterocolitica", "format": "cell-based"}, "[4]": {"system": "Escherichia coli", "assay": "Pathogen inactivation in RBC units (log reduction)", "format": "cell-based"}, "[5]": {"system": "P. aeruginosa", "assay": "Pathogen inactivation in RBC units (log reduction), high level input", "format": "cell-based, Pseudomonas aeruginosa", "experimental": "Bacteria: Frozen working stocks of bacteria were inoculated into a 500 mL flask containing a mixture of 50% yeast extract media without added glucose and 50% fetal bovine serum. The flasks were incubated overnight in a shaking waterbath set at 37° C. Gram positive bacteria were spiked into the blood product directly from the overnight culture. The overnight cultures of Gram negative bacteria were further subcultured by a 1:1000 dilution into fresh culture medium and incubated as above until they reach log phase as determined by optical density. This log phase growth was spiked into the blood product for PI experiments.\nThe PI process involves inoculation of RBC units with a culture of the organism to be tested. The typical target input titer of organisms in the RBC units was approximately 10^6 cfu or pfu/mL of RBC. In most cases the organism volume (including any culture medium) was approximately 1% of the RBC unit volume and was not typically greater than 10%. To evaluate inactivation of lower, more physiologically relevant, levels of bacteria, inputs from 10 to 10^5 cfu/unit were used.\nThe dosing solutions were prepared and added to the units as follows: A 600 mM Glutathione (GSH) solution with 1 equivalent of NaOH was prepared by dissolving 2.8 g of GSH in ˜12 mL of 0.9% saline and 0.9 mL of 10 N NaOH. The appropriate volume of GSH solution was drawn into a 20 mL capacity syringe. The volume used was typically 10 mL of GSH solution per 280 mL of RBC, plus 2 mL line loss to generate 20 mM GSH in the dosed RBC unit. The syringe containing GSH was attached to the mixing container using the filtered lead that shares a Y fitting with the lead connected to the incubation container. The unit was placed on a rocker to facilitate top to bottom mixing during addition of dosing solutions. The GSH was added to the unit while the unit is mixing on the rocker. […]\nLog reduction for each unit was determined by taking the log of the ratio of pre-treatment titer to post-treatment titer, where titers were expressed as 10×cfu or pfu/mL. […]"}, "[6]": {"system": "Vesicular stomatitis virus (VSV)", "format": "cell-based"}, "[7]": {"system": "Pseudomonas aerugenosa", "assay": "Low level input full unit inactivation in RBC units", "format": "cell-based, Pseudomonas aeruginosa"}, "[8]": {"settings": "diluted SAG-M RBC units, 20 mM GSH sodium salt, 0.2 mM S-303, 3 hour incubation, n = 4"}, "[9]": {"settings": "high level input, 130 μM S-303, 13 mM GSH (1 b.e.), diluted with diluent solution, 3 h RT, N = 2"}, "[10]": {"settings": "high level input, 200 μM S-303, 20 mM GSH (1 b.e.), 3 h RT, N = 2"}, "[11]": {"settings": "high level input, 200 μM S-303, 20 mM GSH (1 b.e.), without leukofiltration, 3 h RT, N = 2"}, "[12]": {"settings": "low level input, 200 μM S-303, 20 mM GSH (1 b.e.), RT 20 hours then 37° C. ~20 hours"}}, "note": "Marks after values point to notes of the source that are not given here.", "data": [{"smiles": "O=C(CCNc1c2ccccc2nc2ccccc12)OCCN(CCCl)CCCl", "note": "[S-303, β-alanine, N-(acridin-9-yl), 2-[bis(2-chloroethyl)amino]ethyl ester]", "values": [{"measurement": "Log Reduction GSH (20 mM), 1 b.e.", "setting": "[1]", "value": "6.0 ± 0.3", "unit": "log"}, {"measurement": "Log Reduction GSH (20 mM), 2 b.e.", "setting": "[1]", "value": 6.4, "unit": "log"}, {"measurement": "Average Log Kill", "setting": "[1]; [8]", "value": 4.15, "unit": "log"}, {"measurement": "Mean Log10 Reduction, 40% Hematocrit", "setting": "[1]; [9]", "value": ">7", "unit": "log10"}, {"measurement": "Mean Log10 Reduction, 60% Hematocrit", "setting": "[1]; [10]", "value": 6.7, "unit": "log10"}, {"measurement": "Mean Log10 Reduction, 80% Hematocrit", "setting": "[1]; [11]", "value": "≥5.8^b log10"}, {"measurement": "Log Reduction GSH (20 mM), 1 b.e.", "setting": "[2]", "value": "3.7 ± 0.4", "unit": "log"}, {"measurement": "Log Reduction GSH (20 mM), 2 b.e.", "setting": "[2]", "value": 4.8, "unit": "log"}, {"measurement": "Average Log Kill", "setting": "[2]; [8]", "value": 4.20, "unit": "log"}, {"measurement": "Mean Log10 Reduction, 40% Hematocrit", "setting": "[2]; [9]", "value": 3.1, "unit": "log10"}, {"measurement": "Mean Log10 Reduction, 60% Hematocrit", "setting": "[2]; [10]", "value": 4.5, "unit": "log10"}, {"measurement": "Mean Log10 Reduction, 80% Hematocrit", "setting": "[2]; [11]", "value": "4.4^b log10"}, {"measurement": "Log Reduction GSH (20 mM), 1 b.e.", "setting": "[3]; Y. enterocolitica, 0.2 mM S-303, 20 mM GSH with 1 equivalent NaOH, AS-3 RBC ~60% hematocrit, 3 h at 20 to 25° C.", "value": "5.0 ± 0.4", "unit": "log"}, {"measurement": "Log Reduction GSH (20 mM), 2 b.e.", "setting": "[3]; Y. enterocolitica, previous conditions, GSH neutralized with 2 equivalents NaOH", "value": 4.6, "unit": "log"}, {"measurement": "Average Log Kill", "setting": "[3]; [8]", "value": "≥6.57", "unit": "log"}, {"measurement": "Mean Log10 Reduction, 40% Hematocrit", "setting": "[3]; [9]", "value": 6.1, "unit": "log10"}, {"measurement": "Mean Log10 Reduction, 60% Hematocrit", "setting": "[3]; [10]", "value": 4.9, "unit": "log10"}, {"measurement": "Mean Log10 Reduction, 80% Hematocrit", "setting": "[3]; [11]", "value": "3.4^b log10"}, {"measurement": "Log Reduction GSH (20 mM), 1 b.e.", "setting": "[4]", "value": "5.9 ± 0.8", "unit": "log"}, {"measurement": "Log Reduction GSH (20 mM), 2 b.e.", "setting": "[4]", "value": 6.5, "unit": "log"}, {"measurement": "Average Log Kill", "setting": "[4]; [8]", "value": "≥6.69", "unit": "log"}, {"measurement": "Mean Log10 Reduction, 40% Hematocrit", "setting": "[4]; [9]", "value": 6.6, "unit": "log10"}, {"measurement": "Mean Log10 Reduction, 60% Hematocrit", "setting": "[4]; high level input, 200 μM S-303, 20 mM GSH (1 b.e.), 3 h RT, n = 3", "value": "6.1^c log10"}, {"measurement": "Mean Log10 Reduction, 80% Hematocrit", "setting": "[4]; [11]", "value": "3.8^b log10"}, {"measurement": "Log Reduction GSH (20 mM), 1 b.e.", "setting": "[5]; P. aeruginosa, 0.2 mM S-303, 20 mM GSH with 1 equivalent NaOH, AS-3 RBC ~60% hematocrit, 3 h at 20 to 25° C.", "value": "1.2 ± 0.4", "unit": "log"}, {"measurement": "Log Reduction GSH (20 mM), 2 b.e.", "setting": "[5]; P. aeruginosa, previous conditions, GSH neutralized with 2 equivalents NaOH", "value": 1.8, "unit": "log"}, {"measurement": "Average Log Kill", "setting": "[5]; [8]", "value": 3.35, "unit": "log"}, {"measurement": "Log Reduction GSH (20 mM), 1 b.e.", "setting": "[6]", "value": ">5.9", "unit": "log"}, {"measurement": "Log Reduction GSH (20 mM), 2 b.e.", "setting": "[6]", "value": 4.2, "unit": "log"}, {"measurement": "Mean Log10 Reduction, 40% Hematocrit", "setting": "[6]; N = 2", "value": 5.9, "unit": "log10"}, {"measurement": "Mean Log10 Reduction, 60% Hematocrit", "setting": "[6]; N = 2", "value": ">5.9", "unit": "log10"}, {"measurement": "Mean Log10 Reduction, 80% Hematocrit", "setting": "[6]; N = 2", "value": ">6.2^b log10"}, {"measurement": "Pathogen inactivation of Pseudomonas aeruginosa", "setting": "[7]", "value": "complete inactivation"}, {"measurement": "Full Unit Inactivation, 40% Hematocrit", "setting": "[7]; low level input, 130 μM S-303, 13 mM GSH (1 b.e.), RT 20 hours then 37° C. ~20 hours", "value": "≥2.5", "unit": "log10"}, {"measurement": "Full Unit Inactivation, 60% Hematocrit", "setting": "[7]; [12]", "value": "≥2.5", "unit": "log10"}, {"measurement": "Full Unit Inactivation, 80% Hematocrit", "setting": "[7]; [12]", "value": "≥2.7", "unit": "log10"}]}]}
